Inconclusive results and toxic doses are left out. Rule as the data show it: active = T/C of 150% or more; inactive = T/C below 125%.
Tested on: L1210 leukemia ip in BDF1 mice, survival T/C
Test: NCI In Vivo Anticancer Drug Screen. Data for tumor model L1210 Leukemia (intraperitoneal) in B6D2F1 (BDF1) mice
Conditions: endpoint: mean survival time, higher = longer survival
Procedure, shortened: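 Mice bearing the transplanted tumor received compound or vehicle. Survival of the treated group was divided by that of the vehicle-treated control group to give the ratio.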

Measured: T/C

O=C(O)c1ccc(Cn2ccc(=O)[nH]c2=O)cc1
inactive: dose: 100.0 mg/kg/injection, schedule: Q01DX001 (ip), vehicle: saline with Tween-80 95 % of control | dose: 200.0 mg/kg/injection, schedule: Q01DX001 (ip), vehicle: saline with Tween-80 107 % of control | dose: 400.0 mg/kg/injection, schedule: Q01DX001 (ip), vehicle: saline with Tween-80 101 % of control

CN1C(C(=O)c2ccc(-c3ccccc3)cc2)C1c1ccccc1 (stereo not given)
inactive: dose: 100.0 mg/kg/injection, schedule: Q01DX001 (ip), vehicle: Klucel (hydroxypropylcellulose) (HPC) 93 % of control | dose: 200.0 mg/kg/injection, schedule: Q01DX001 (ip), vehicle: Klucel (hydroxypropylcellulose) (HPC) 97 % of control | dose: 400.0 mg/kg/injection, schedule: Q01DX001 (ip), vehicle: Klucel (hydroxypropylcellulose) (HPC) 110 % of control

COc1cc(NC=O)c2ncccc2c1
inactive: dose: 50.0 mg/kg/injection, schedule: Q04DX003 (ip), vehicle: Klucel (hydroxypropylcellulose) (HPC) 97 % of control | dose: 100.0 mg/kg/injection, schedule: Q04DX003 (ip), vehicle: Klucel (hydroxypropylcellulose) (HPC) 100 % of control | dose: 200.0 mg/kg/injection, schedule: Q04DX003 (ip), vehicle: Klucel (hydroxypropylcellulose) (HPC) 88 % of control

CC1c2nc(N)nc(N)c2CN1C(=O)c1ccccc1 (stereo not given)
inactive: dose: 100.0 mg/kg/injection, schedule: Q01DX001 (ip), vehicle: carboxymethylcellulose (CMC) 98 % of control | dose: 200.0 mg/kg/injection, schedule: Q01DX001 (ip), vehicle: carboxymethylcellulose (CMC) 98 % of control | dose: 400.0 mg/kg/injection, schedule: Q01DX001 (ip), vehicle: carboxymethylcellulose (CMC) 97 % of control

O=Cc1cccn1-c1ccc2ncccc2c1[N+](=O)[O-]
inactive: dose: 50.0 mg/kg/injection, schedule: Q04DX002 (ip), vehicle: Klucel (hydroxypropylcellulose) (HPC) 90 % of control | dose: 100.0 mg/kg/injection, schedule: Q04DX002 (ip), vehicle: Klucel (hydroxypropylcellulose) (HPC) 111 % of control | dose: 200.0 mg/kg/injection, schedule: Q04DX002 (ip), vehicle: Klucel (hydroxypropylcellulose) (HPC) 93 % of control
